From PubChem BioAssay AID248 (DTP/NCI, 2004)
Several values for one entry are separate records, joined by “and”; a condition that tells them apart may be missing. Equal values may be shown once. Toxic doses and inconclusive results are not listed. Rule as the data show it: active = T/C of 150% or more; inactive = T/C below 125%.

Tested on: L1210 leukemia ip in BDF1 mice, survival T/C
Assay: NCI In Vivo Anticancer Drug Screen. Data for tumor model L1210 Leukemia (intraperitoneal) in B6D2F1 (BDF1) mice
Conditions: endpoint: mean survival time, higher = longer survival
Procedure, shortened: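 Survival endpoint. Drug-treated group vs vehicle group, expressed as T divided by C. Tumor passaged by transplantation.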

[1] = dose: 100.0 mg/kg/injection, schedule: Q01DX001 (ip), vehicle: saline with Tween-80
[2] = dose: 100.0 mg/kg/injection, schedule: Q01DX009 (ip), vehicle: saline with Tween-80
[3] = dose: 100.0 mg/kg/injection, schedule: Q04DX002 (ip), vehicle: Klucel (hydroxypropylcellulose) (HPC)
[4] = dose: 100.0 mg/kg/injection, schedule: Q04DX002 (ip), vehicle: saline with Tween-80
[5] = dose: 100.0 mg/kg/injection, schedule: Q04DX003 (ip), vehicle: saline with Tween-80
[6] = dose: 200.0 mg/kg/injection, schedule: Q01DX001 (ip), vehicle: saline with Tween-80
[7] = dose: 200.0 mg/kg/injection, schedule: Q01DX009 (ip), vehicle: saline with Tween-80
[8] = dose: 200.0 mg/kg/injection, schedule: Q04DX002 (ip), vehicle: Klucel (hydroxypropylcellulose) (HPC)
[9] = dose: 200.0 mg/kg/injection, schedule: Q04DX002 (ip), vehicle: saline with Tween-80
[10] = dose: 200.0 mg/kg/injection, schedule: Q04DX003 (ip), vehicle: saline with Tween-80
[11] = dose: 400.0 mg/kg/injection, schedule: Q01DX001 (ip), vehicle: saline with Tween-80
[12] = dose: 400.0 mg/kg/injection, schedule: Q01DX009 (ip), vehicle: saline with Tween-80
[13] = dose: 400.0 mg/kg/injection, schedule: Q04DX002 (ip), vehicle: Klucel (hydroxypropylcellulose) (HPC)
[14] = dose: 400.0 mg/kg/injection, schedule: Q04DX002 (ip), vehicle: saline with Tween-80
[15] = dose: 400.0 mg/kg/injection, schedule: Q04DX003 (ip), vehicle: saline with Tween-80
[16] = dose: 100.0 mg/kg/injection, schedule: Q04DX003 (ip), vehicle: saline
[17] = dose: 200.0 mg/kg/injection, schedule: Q04DX003 (ip), vehicle: saline
[18] = dose: 100.0 mg/kg/injection, schedule: Q04DX003 (ip), vehicle: Klucel (hydroxypropylcellulose) (HPC)
[19] = dose: 200.0 mg/kg/injection, schedule: Q04DX003 (ip), vehicle: Klucel (hydroxypropylcellulose) (HPC)
[20] = dose: 400.0 mg/kg/injection, schedule: Q04DX003 (ip), vehicle: Klucel (hydroxypropylcellulose) (HPC)
[21] = dose: 100.0 mg/kg/injection, schedule: Q01DX009 (ip), vehicle: Klucel (hydroxypropylcellulose) (HPC)
[22] = dose: 100.0 mg/kg/injection, schedule: Q01DX001 (ip), vehicle: saline
[23] = dose: 200.0 mg/kg/injection, schedule: Q01DX001 (ip), vehicle: saline
[24] = dose: 100.0 mg/kg/injection, schedule: Q01DX001 (ip), vehicle: carboxymethylcellulose (CMC)
[25] = dose: 200.0 mg/kg/injection, schedule: Q01DX001 (ip), vehicle: carboxymethylcellulose (CMC)
[26] = dose: 400.0 mg/kg/injection, schedule: Q01DX001 (ip), vehicle: carboxymethylcellulose (CMC)
[27] = dose: 25.0 mg/kg/injection, schedule: Q01DX009 (ip), vehicle: Klucel (hydroxypropylcellulose) (HPC)
[28] = dose: 50.0 mg/kg/injection, schedule: Q01DX009 (ip), vehicle: Klucel (hydroxypropylcellulose) (HPC)

Measured: T/C

CSc1ccc(OC(=O)Nc2ccc(Cl)cc2)cc1
inactive: [1] 95 % of control | [2] 104 % of control and 106 % of control | [3] 103 % of control | [4] 98 % of control | [5] 93 % of control | [6] 106 % of control | [7] 102 % of control and 104 % of control | [8] 103 % of control | [9] 90 % of control | [10] 95 % of control | [11] 90 % of control | [12] 100 % of control and 117 % of control | [13] 92 % of control | [14] 98 % of control | [15] 98 % of control

CCCC1OC1CCC (centres undefined)
inactive: [5] 109 % of control | [10] 97 % of control | [15] 91 % of control

CC(=O)N1CCc2c(O)cccc2C1
inactive: [16] 93 % of control | [17] 93 % of control | dose: 400.0 mg/kg/injection, schedule: Q04DX003 (ip), vehicle: saline 102 % of control

O=[As]1(c2cccc3ccccc23)c2ccccc2Cc2ccccc21
inactive: dose: 83.0 mg/kg/injection, schedule: Q01DX Z (ip), vehicle: methylcellulose (MC) 86 % of control | dose: 125.0 mg/kg/injection, schedule: Q01DX Z (ip), vehicle: methylcellulose (MC) 86 % of control

CSCCC(C)C
inactive: dose: 50.0 mg/kg/injection, schedule: Q01DX009 (ip), vehicle: saline with Tween-80 112 % of control | [2] 106 % of control | [5] 95 % of control | [7] 95 % of control | [10] 103 % of control

COc1ccccc1CCCOC(=O)c1ccc([N+](=O)[O-])cc1
inactive: [1] 100 % of control | [6] 95 % of control | [11] 89 % of control

COC(=O)Cc1cn[nH]c1C(=O)OC
inactive: dose: 100.0 mg/kg/injection, schedule: Q01DX009 (ip), vehicle: saline 97 % of control | [18] 93 % of control | dose: 200.0 mg/kg/injection, schedule: Q01DX009 (ip), vehicle: saline 94 % of control | [19] 97 % of control | dose: 400.0 mg/kg/injection, schedule: Q01DX009 (ip), vehicle: saline 95 % of control | [20] 97 % of control

C/C(=N\N=C(/C)c1ccc(C)cc1C)c1ccc(C)cc1C
inactive: [4] 98 % of control | [9] 95 % of control | [14] 103 % of control

O=C(c1ccccc1)C(Nc1nc2nc(-c3ccccc3)c(-c3ccccc3)n2[nH]1)c1ccccc1 (centres undefined)
inactive: dose: 100.0 mg/kg/injection, schedule: Q01DX005 (ip), vehicle: Klucel (hydroxypropylcellulose) (HPC) 98 % of control | [21] 93 % of control | [3] 101 % of control | dose: 200.0 mg/kg/injection, schedule: Q01DX005 (ip), vehicle: Klucel (hydroxypropylcellulose) (HPC) 98 % of control | dose: 200.0 mg/kg/injection, schedule: Q01DX009 (ip), vehicle: Klucel (hydroxypropylcellulose) (HPC) 93 % of control | [8] 93 % of control | dose: 400.0 mg/kg/injection, schedule: Q01DX005 (ip), vehicle: Klucel (hydroxypropylcellulose) (HPC) 98 % of control | dose: 400.0 mg/kg/injection, schedule: Q01DX009 (ip), vehicle: Klucel (hydroxypropylcellulose) (HPC) 93 % of control | [13] 96 % of control

Nc1cccc(CNC(=O)COc2ccc(Cl)cc2C(=O)O)c1
inactive: [1] 98 % of control | [6] 95 % of control | [11] 103 % of control

O=C1C(Cl)=C(NCCCCCCNC2=C(Cl)C(=O)c3ccccc3C2=O)C(=O)c2ccccc21
inactive: [22] 106 % of control

CCc1nc(C)ncc1-c1ccc([N+](=O)[O-])cc1O
inactive: [18] 97 % of control | [19] 97 % of control | [20] 91 % of control

CC(=O)OCC(OC(C)=O)C(OC(C)=O)C(/C=C/N=[N+]([O-])c1ccccc1)OC(C)=O (centres undefined)
inactive: dose: 50.0 mg/kg/injection, schedule: Q01DX001 (ip), vehicle: saline 100 % of control | [22] 94 % of control | [23] 100 % of control

O=NN(CCCN(N=O)C(=O)Nc1c[nH]c(=O)[nH]c1=O)C(=O)Nc1c[nH]c(=O)[nH]c1=O
inactive: dose: 50.0 mg/kg/injection, schedule: Q01DX Z (ip), vehicle: carboxymethylcellulose (CMC) 110 % of control | dose: 75.0 mg/kg/injection, schedule: Q01DX Z (ip), vehicle: carboxymethylcellulose (CMC) 110 % of control | dose: 100.0 mg/kg/injection, schedule: Q01DX Z (ip), vehicle: carboxymethylcellulose (CMC) 115 % of control | dose: 150.0 mg/kg/injection, schedule: Q01DX Z (ip), vehicle: carboxymethylcellulose (CMC) 111 % of control | dose: 200.0 mg/kg/injection, schedule: Q01DX Z (ip), vehicle: carboxymethylcellulose (CMC) 119 % of control

CC1CSC(=S)S1 (centres undefined)
inactive: dose: 50.0 mg/kg/injection, schedule: Q04DX003 (ip), vehicle: Klucel (hydroxypropylcellulose) (HPC) 102 % of control | [18] 107 % of control | [19] 104 % of control

O=C(O)CC(NCc1ccccc1)C1CCCCC1 (centres undefined)
inactive: dose: 100.0 mg/kg/injection, schedule: Q01DX001 (ip), vehicle: Klucel (hydroxypropylcellulose) (HPC) 95 % of control | dose: 200.0 mg/kg/injection, schedule: Q01DX001 (ip), vehicle: Klucel (hydroxypropylcellulose) (HPC) 101 % of control | dose: 400.0 mg/kg/injection, schedule: Q01DX001 (ip), vehicle: Klucel (hydroxypropylcellulose) (HPC) 98 % of control

CC(C)=CCC/C(C)=C\C=N\O
inactive: [24] 101 % of control | [25] 95 % of control | [26] 98 % of control

COc1cc2cccc(OC)c(=O)c2c(O)c1OC
inactive: [27] 92 % of control | [28] 96 % of control | [21] 92 % of control and 106 % of control | [18] 101 % of control | [19] 92 % of control | [20] 99 % of control

Nc1ccc(N=Nc2ccc(S(=O)(=O)Nc3nccs3)cc2)c(N)n1
inactive: [22] 102 % of control | [23] 96 % of control | dose: 400.0 mg/kg/injection, schedule: Q01DX001 (ip), vehicle: saline 88 % of control

O=C(CNC(=O)c1ccccc1)N/N=C/c1c(O)ccc2ccccc12
inactive: [2] 95 % of control | [7] 95 % of control | [12] 97 % of control

c1ccc(C(c2ccccc2)n2ccnc2)cc1
inactive: dose: 37.5 mg/kg/injection, schedule: Q04DX003 (ip), vehicle: saline 94 % of control | dose: 75.0 mg/kg/injection, schedule: Q04DX003 (ip), vehicle: saline 102 % of control | dose: 150.0 mg/kg/injection, schedule: Q04DX003 (ip), vehicle: saline 105 % of control

CCOC(=O)CC(C(C)=O)C(=O)OCC (centres undefined)
inactive: dose: 50.0 mg/kg/injection, schedule: Q01DX001 (ip), vehicle: carboxymethylcellulose (CMC) 100 % of control | [24] 100 % of control | [25] 94 % of control | [26] 100 % of control

S=C(NCc1ccc(Cl)c(Cl)c1)NCc1ccc(Cl)c(Cl)c1
inactive: [27] 103 % of control | [28] 101 % of control

COc1cc(NC(=O)Oc2ccc([N+](=O)[O-])cc2)ccc1S(=O)(=O)F
inactive: [2] 94 % of control | [7] 103 % of control | [12] 103 % of control

O=C(OCCN1CCCCC1)C(O)C1CCCCC1 (centres undefined)
inactive: [16] 101 % of control | [17] 103 % of control
